Measured values: patent US9011912B2, “Extended-release oral dosage forms for poorly soluble amine drugs” (Abon Pharmaceuticals, LLC, priority 2010, dated 2015)
Read-outs that look alike come from different tables or passages of the source.

Experiments:
[1] = amine drug, cited from earlier work
[2] = Solubility test of paliperidone with ionizable compound (citric acid) and amphiphilic compound (SoluPlus); type: physicochemical; conditions: for solubility: room temperature
Description: A solubility test was performed to quantify the synergistic effects provided by the combination of an ionizable polymer and an amphiphilic compound. In this Example the ionizable compound was citric acid and the amphiphilic compound was SoluPlus®.

solubility higher in solution containing ionizable compound and amphiphilic polymer compared to ionizable compound without amphiphilic polymer ([2]; 10% Soluplus + 10% citric acid vs 10% citric acid alone) | solubility ([2]; aqueous buffer, in 10% Citric Acid Aqueous Solution) | solubility ([2]; aqueous with cosolvent or surfactant or cyclodextrin, in 10% Soluplus Aqueous Solution) | solubility ([2]; aqueous with cosolvent or surfactant or cyclodextrin, in 10% Soluplus and 10% Citric Acid Aqueous Solution) | Compound | pKa ([1]; second pKa value) | pKa ([1]; first pKa value)
 |  |  |  | CCOc1ccccc1OCCN[C@H](C)Cc1ccc(OC)c(S(N)(=O)=O)c1 [Tamsulosin] | 10.23 | 
 |  |  |  | Cc1cc2c(s1)Nc1ccccc1N=C2N1CCN(C)CC1 [Olanzapine] | 7.4 | 5
34.3% | 241 mg/mL | 0.6 mg/mL | 324 mg/mL | Cc1nc2n(c(=O)c1CCN1CCC(c3noc4cc(F)ccc34)CC1)CCCC2O (stereo not drawn) [Paliperidone] | 8.6 | 8.2
